US11161854B2, “Indazolyl-spiro[2.2]pentane-carbonitrile derivatives as LRRK2 inhibitors, pharmaceutical compositions, and uses thereof” (Merck Sharp & Dohme Corp., priority 2017, dated 2021)

What follows are compounds tested against GST-tagged truncated human mutant G2019S LRRK2 (Homo sapiens (Human), UniProt Q5S007, G2019S) (assay: LRRK2 G2019S Km ATP LanthaScreen Assay). Details: 134 μM ATP (Km ATP); fluorescein-labeled LRRKtide substrate; mean IC50 values.
GST-tagged truncated human mutant G2019S LRRK2, sequence (Q5S007 970-2527 G2019S): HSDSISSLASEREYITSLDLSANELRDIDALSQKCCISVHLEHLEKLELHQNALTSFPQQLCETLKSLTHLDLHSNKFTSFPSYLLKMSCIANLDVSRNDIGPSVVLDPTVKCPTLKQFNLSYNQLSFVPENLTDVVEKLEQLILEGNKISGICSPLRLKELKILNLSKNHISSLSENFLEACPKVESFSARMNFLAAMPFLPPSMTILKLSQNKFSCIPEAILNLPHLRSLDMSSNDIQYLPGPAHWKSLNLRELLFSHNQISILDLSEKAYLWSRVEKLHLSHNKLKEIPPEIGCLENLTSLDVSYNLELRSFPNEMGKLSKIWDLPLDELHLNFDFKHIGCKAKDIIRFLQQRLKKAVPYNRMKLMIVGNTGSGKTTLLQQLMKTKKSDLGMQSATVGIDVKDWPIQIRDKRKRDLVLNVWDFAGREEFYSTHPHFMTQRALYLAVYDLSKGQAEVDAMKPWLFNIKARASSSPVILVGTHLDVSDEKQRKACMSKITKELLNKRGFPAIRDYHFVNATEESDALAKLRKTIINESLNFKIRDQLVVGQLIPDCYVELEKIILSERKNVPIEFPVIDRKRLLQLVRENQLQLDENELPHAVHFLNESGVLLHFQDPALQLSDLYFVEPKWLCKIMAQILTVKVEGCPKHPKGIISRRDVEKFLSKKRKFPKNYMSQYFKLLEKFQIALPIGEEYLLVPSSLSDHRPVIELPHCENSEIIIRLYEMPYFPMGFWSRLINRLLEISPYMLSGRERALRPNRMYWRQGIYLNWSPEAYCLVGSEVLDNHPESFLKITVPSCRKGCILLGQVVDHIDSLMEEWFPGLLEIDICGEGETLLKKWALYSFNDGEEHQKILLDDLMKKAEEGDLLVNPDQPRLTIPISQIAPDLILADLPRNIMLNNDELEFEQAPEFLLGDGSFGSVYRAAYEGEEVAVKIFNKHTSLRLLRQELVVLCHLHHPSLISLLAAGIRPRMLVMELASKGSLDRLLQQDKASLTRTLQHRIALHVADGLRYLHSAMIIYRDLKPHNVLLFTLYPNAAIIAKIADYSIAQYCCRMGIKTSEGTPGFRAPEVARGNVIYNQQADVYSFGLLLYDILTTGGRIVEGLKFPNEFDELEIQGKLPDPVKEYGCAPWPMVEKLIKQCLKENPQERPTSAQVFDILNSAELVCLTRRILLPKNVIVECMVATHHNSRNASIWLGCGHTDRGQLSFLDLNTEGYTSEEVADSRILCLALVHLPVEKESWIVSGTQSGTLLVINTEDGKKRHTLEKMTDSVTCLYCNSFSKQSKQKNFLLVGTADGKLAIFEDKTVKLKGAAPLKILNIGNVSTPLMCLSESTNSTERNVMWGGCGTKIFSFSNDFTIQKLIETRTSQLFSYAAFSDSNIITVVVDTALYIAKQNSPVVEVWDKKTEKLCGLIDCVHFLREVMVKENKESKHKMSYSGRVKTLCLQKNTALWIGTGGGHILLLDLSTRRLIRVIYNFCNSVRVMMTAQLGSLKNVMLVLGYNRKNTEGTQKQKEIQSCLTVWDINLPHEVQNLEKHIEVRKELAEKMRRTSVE
Format: biochemical
Method: The IC50 values reported herein were measured as follows.
Biological Assay: LRRK2 Km ATP LanthaScreen™ Assay
The data presented for the Km ATP LanthaScreen™ Assay represents mean IC50 values based on several test results and may have reasonable deviations depending on the specific conditions and reagents used. Assays were performed in the presence of 134 μM ATP (Km ATP). Upon completion, the assay was stopped and phosphorylated substrate detected with a terbium (Tb)-labeled anti-pERM antibody (cat. no. PV4898). The compound dose response was prepared by diluting a 10 mM stock of compound to a maximum concentration of […] in 100% dimethylsulfoxide followed by custom fold serial dilution in dimethylsulfoxide nine times. Twenty nanoliters of each dilution was spotted via a Labcyte Echo onto a 384-well black-sided plate (Corning 3575) followed by 15 μl of a 1.25 nM enzyme solution in 1× assay buffer (50 mM Tris pH 8.5, 10 mM MgCl2, 0.01% Brij-35, 1 mM EGTA, 2 mM dithiothreitol, 0.05 mM sodium orthovanadate). Following a 15-minute incubation at room temperature, the kinase reaction was started with the addition of 5 μl of 400 nM fluorescein-labeled LRRKtide peptide substrate and 134 μM ATP solution in 1× assay buffer. The reaction was allowed to progress at ambient temperature for 90 minutes. The reaction was then stopped by the addition of 20 μl of TR-FRET Dilution Buffer (Life Technologies, Carlsbad, Calif.) containing 2 nM Tb-labeled anti-phospho LRRKtide antibody and 10 mM EDTA (Life Technologies, Carlsbad, Calif.). After an incubation of 1 hour at room temperature, the plate was read on an EnVision multimode plate reader (Perkin Elmer, Waltham, Mass.) with an excitation wavelength of 337 nm (Laser) and a reading emission at both 520 and 495 nm. […] Abase uses a 4 parameter (4P) logistic fit based on the Levenberg-Marquardt algorithm.
`N#C[C@@]1(c2ccc3cnn(-c4cc(N5CC(O)C6(CC6)C5)ncn4)c3c2)CC12CC2` (single isomer, unassigned) [Example 3.11-2] showed an IC50 of 1.4 nM.
In the case of `N#C[C@]1(c2ccc3cnn(-c4cc(N5CC(O)C6(CC6)C5)ncn4)c3c2)CC12CC2` (single isomer, unassigned) [Example 3.11-3], the IC50 is reported as 6.3 nM.
`N#C[C@@]1(c2ccc3cnn(-c4cc(N5CC(O)C6(CC6)C5)ncn4)c3c2)CC12CC2` (single isomer, unassigned) [Example 3.11-4] showed an IC50 of 0.6 nM.
In the case of `CC(C)(O)C1CN(c2cc(-n3ncc4ccc([C@]5(C#N)CC56CC6)cc43)ncn2)CCO1` (single isomer, unassigned) [Example 4.3-1, 1-(1-(6-(2-(2-hydroxypropan-2-yl)morpholino)pyrimidin-4-yl)-1H-indazol-6-yl)spiro[2.2]pentane-1-carbonitrile], the IC50 is reported as 1.8 nM.
`CC(C)(O)C1CN(c2cc(-n3ncc4ccc([C@]5(C#N)CC56CC6)cc43)ncn2)CCO1` (single isomer, unassigned) [Example 4.3-2, 1-(1-(6-(2-(2-hydroxypropan-2-yl)morpholino)pyrimidin-4-yl)-1H-indazol-6-yl)spiro[2.2]pentane-1-carbonitrile] gave an IC50 of 0.6 nM.
`CC(C)(O)C12CC(C1)N(c1cc(-n3ncc4c(F)cc(C5(C#N)CC56CC6)cc43)ncn1)C2` (single isomer, unassigned) [Example 4.15-1] was tested, and the IC50 was 18.4 nM.
In the case of `CC(C)(O)C12CC(C1)N(c1cc(-n3ncc4c(F)cc(C5(C#N)CC56CC6)cc43)ncn1)C2` (single isomer, unassigned) [Example 4.15-2], the IC50 is reported as 2.3 nM.
`CC(C)(O)C12CC(C1)N(c1cc(-n3ncc4cnc(C5(C#N)CC56CC6)cc43)ncn1)C2` (single isomer, unassigned) [Example 5.2-1, 1-(1-(6-(4-(2-hydroxypropan-2-yl)-2-azabicyclo[2.1.1]hexan-2-yl)pyrimidin-4-yl)-1H-pyrazolo[4,3-c]pyridin-6-yl)spiro[2.2]pentane-1-carbonitrile] showed an IC50 of 9.2 nM.
For `CC(C)(O)C12CC(C1)N(c1cc(-n3ncc4cnc(C5(C#N)CC56CC6)cc43)ncn1)C2` (single isomer, unassigned) [Example 5.2-2, 1-(1-(6-(4-(2-hydroxypropan-2-yl)-2-azabicyclo[2.1.1]hexan-2-yl)pyrimidin-4-yl)-1H-pyrazolo[4,3-c]pyridin-6-yl)spiro[2.2]pentane-1-carbonitrile], the IC50 was 1.7 nM.
Compound `CC(C)(O)[C@@H]1CCN(c2cc(-n3ncc4cnc(C5(C#N)CC56CC6)cc43)ncn2)C1` (single isomer, unassigned) [Example 5.3-1] has an IC50 of 7.5 nM.
`CC(C)(O)[C@@H]1CCN(c2cc(-n3ncc4cnc(C5(C#N)CC56CC6)cc43)ncn2)C1` (single isomer, unassigned) [Example 5.3-2] was tested, and the IC50 was 0.7 nM.
`C[C@@H]1CN(c2cc(-n3ncc4cnc(C5(C#N)CC56CC6)cc43)ncn2)C[C@H](C)[C@]1(C)O` (single isomer, unassigned) [Example 5.4-1] showed an IC50 of 15 nM.
`C[C@@H]1CN(c2cc(-n3ncc4cnc(C5(C#N)CC56CC6)cc43)ncn2)C[C@H](C)[C@]1(C)O` (single isomer, unassigned) [Example 5.4-2] showed an IC50 of 2.6 nM.
With `CC(C)(O)C12CC(C1)N(c1cc(-n3ncc4cc(F)c(C5(C#N)CC56CC6)cc43)ncn1)C2` (single isomer, unassigned) [Example 5.5-1, 1-(5-fluoro-1-(6-(4-(2-hydroxypropan-2-yl)-2-azabicyclo[2.1.1]hexan-2-yl)pyrimidin-4-yl)-1H-indazol-6-yl)spiro[2.2]pentane-1-carbonitrile] the IC50 was 3.9 nM.
`CC(C)(O)C12CC(C1)N(c1cc(-n3ncc4cc(F)c(C5(C#N)CC56CC6)cc43)ncn1)C2` (single isomer, unassigned) [Example 5.5-2, 1-(5-fluoro-1-(6-(4-(2-hydroxypropan-2-yl)-2-azabicyclo[2.1.1]hexan-2-yl)pyrimidin-4-yl)-1H-indazol-6-yl)spiro[2.2]pentane-1-carbonitrile] showed an IC50 of 31.6 nM.
`Cc1nc(N2CC3(C(C)(C)O)CC2C3)cc(-n2ncc3cc(F)c(C4(C#N)CC45CC5)cc32)n1` (single isomer, unassigned) [Example 5.6-1, 1-(5-fluoro-1-(6-(4-(2-hydroxypropan-2-yl)-2-azabicyclo[2.1.1]hexan-2-yl)-2-methylpyrimidin-4-yl)-1H-indazol-6-yl)spiro[2.2]pentane-1-carbonitrile] gave an IC50 of 20.9 nM.
In the case of `Cc1nc(N2CC3(C(C)(C)O)CC2C3)cc(-n2ncc3cc(F)c(C4(C#N)CC45CC5)cc32)n1` (single isomer, unassigned) [Example 5.6-2, 1-(5-fluoro-1-(6-(4-(2-hydroxypropan-2-yl)-2-azabicyclo[2.1.1]hexan-2-yl)-2-methylpyrimidin-4-yl)-1H-indazol-6-yl)spiro[2.2]pentane-1-carbonitrile], the IC50 is reported as 1.3 nM.
Compound `CC(C)(O)[C@@H]1CCN(c2cc(-n3ncc4cc(F)c(C5(C#N)CC56CC6)cc43)ncn2)C1` (single isomer, unassigned) [Example 5.7-1] has an IC50 of 21.7 nM.
In the case of `CC(C)(O)[C@@H]1CCN(c2cc(-n3ncc4cc(F)c(C5(C#N)CC56CC6)cc43)ncn2)C1` (single isomer, unassigned) [Example 5.7-2], the IC50 is reported as 2.6 nM.
Work on `CC(C)(O)C12CC(C1)N(c1cc(-n3ncc4ccc(C5(C#N)CC56CC6)cc43)ccn1)C2` (single isomer, unassigned) [Example 6.1, (R or S)-1-(1-(2-(4-(2-hydroxypropan-2-yl)-2-azabicyclo[2.1.1]hexan-2-yl)pyridin-4-yl)-1H-indazol-6-yl)spiro[2.2]pentane-1-carbonitrile] yielded an IC50 of 1.2 nM.
For `CC(C)(O)[C@@H]1CCN(c2cc(-n3ncc4cnc(C5(C#N)CC56CC6)cc43)ccn2)C1` (single isomer, unassigned) [Example 6.6-1], the IC50 was 28.5 nM.
Work on `CC(C)(O)[C@@H]1CCN(c2cc(-n3ncc4cnc(C5(C#N)CC56CC6)cc43)ccn2)C1` (single isomer, unassigned) [Example 6.6-2] yielded an IC50 of 3.4 nM.
`CC(C)(O)C12CC(C1)N(c1cc(-n3ncc4cnc(C5(C#N)CC56CC6)cc43)ccn1)C2` (single isomer, unassigned) [Example 6.7-1, 1-(1-(2-(4-(2-hydroxypropan-2-yl)-2-azabicyclo[2.1.1]hexan-2-yl)pyridin-4-yl)-1H-pyrazolo[4,3-c]pyridin-6-yl)spiro[2.2]pentane-1-carbonitrile] gave an IC50 of 59 nM.
`CC(C)(O)C12CC(C1)N(c1cc(-n3ncc4cnc(C5(C#N)CC56CC6)cc43)ccn1)C2` (single isomer, unassigned) [Example 6.7-2, 1-(1-(2-(4-(2-hydroxypropan-2-yl)-2-azabicyclo[2.1.1]hexan-2-yl)pyridin-4-yl)-1H-pyrazolo[4,3-c]pyridin-6-yl)spiro[2.2]pentane-1-carbonitrile] showed an IC50 of 7.8 nM.
In the case of `Cc1cc(-n2ncc3ccc(C4(C#N)CC45CC5)cc32)cc(N2CC3(C(C)(C)O)CC2C3)n1` (single isomer, unassigned) [Example 7.3-1, (R or S)-1-(1-(2-(4-(2-hydroxypropan-2-yl)-2-azabicyclo[2.1.1]hexan-2-yl)-6-methylpyridin-4-yl)-1H-indazol-6-yl)spiro[2.2]pentane-1-carbonitrile], the IC50 is reported as 54.2 nM.
